Laboratory results as given in a melting point compilation (Tetko et al.; mined from patent text by program, amines drawn as free bases though some values may be those of a salt).

Row | Compound | melting point
1 | CCCc1c(CSc2nccc(OCC(=O)O)n2)ccc(C(C)=O)c1O | 174 to 178 °C
2 | COc1ccc(-c2c(Cl)c(CN3C(=O)CSC3=O)nc3sc4c(c23)CCSC4)cc1 | 208 to 209 °C
3 | O=c1[nH]c(=O)n(C2CC2)c2nc(S(=O)(O)=S)c(F)cc12 | 300 to 302 °C
4 | CN1C(=O)C(=O)c2cc([N+](=O)[O-])cc(C(F)(F)F)c21 | 168 to 169 °C
5 | CC(=O)c1cc2c(s1)C(C)(C)CCC2(C)C | 53 to 55 °C
6 | CCOC(=O)CC(NC(=O)C(C)C)C(=O)c1ccco1 (stereo not drawn) | 65 to 67 °C
7 | Cc1cccc(OC(=O)n2c3c(c(=O)n(C4CCCCO4)c2=O)CCC3)c1 (stereo not drawn) | 155 °C
8 | Cc1cnc(CCCCNc2ncc(Cc3ccc(C)nc3)c(=O)[nH]2)c(N)c1 | 86 to 89 °C
9 | O=C(OCC1CC1)c1ncn2c1[C@@H]1CCCN1C(=O)c1c(Cl)cccc1-2 | 195 to 196 °C
10 | CC(C)(C)C(O)(Cc1ccccc1)C(Cn1ccnc1)Oc1ccc(Cl)cc1 (stereo not drawn) | 179 to 181 °C
11 | Fc1ccc(Cn2c(NC3CCN(CCN(Cc4ccccc4)Cc4ccccc4)CC3)nc3ccccc32)cc1 | 116 °C
12 | CC(=O)N1CCCC(=O)c2ccc(Cl)cc2CCC1=O | 154 to 156 °C
13 | COc1cc2c(cn1)OCC21C(=O)N(CC2CCOCC2)c2ccccc21 (stereo not drawn) | 84 to 85 °C
14 | COc1ccc(OC)c2c1CC(O)CC2O (stereo not drawn) | 126 °C
15 | CC(Oc1ccc(-c2cccc(C(N)=O)c2)cc1)C(O)CCc1cccnc1 (stereo not drawn) | 74 to 76 °C
16 | CC(=O)Nc1ccc2c(c1)COCO2 | 133 to 134 °C
17 | CC(Oc1ccc2c(c1)C(O)C(Oc1cccnc1)CO2)c1ccc2ccccc2n1 (stereo not drawn) | 75 to 83 °C
18 | CCCc1c(C(C)C)cc(C(C)C)c(C(C)O)c1-c1ccc(F)cc1 (single isomer, unassigned; (+)) | 114 to 116 °C
19 | CC(C)(C)OC(=O)c1cnc(F)cn1 | 26.5 to 28.1 °C
20 | CNc1ccc(NC(=O)OC2CCCC2)cc1C(Cc1ccc(C(=O)OC)cc1OC)=NOC(C)=O | 124 to 126 °C
21 | Cc1oc(-c2ccccc2)nc1COc1ccccc1CCCC1SC(=O)NC1=O (stereo not drawn) | 173 to 174 °C
22 | CCS(=O)(=O)c1cc(OC)c(OC)c(C(=O)O)c1 | 138 to 139 °C
23 | Cc1cc(CC(=O)O)cc2c1NC(C(F)(F)F)CC2 (stereo not drawn) | 135 to 136 °C
24 | CC1(C)C2CCC1(C(=O)P(=O)(c1ccccc1)c1ccccc1)C(=O)C2=O (stereo not drawn) | 92.1 °C
25 | CCOCC1=C(C(=O)OCC)C(c2cccc(C#N)c2)C(C(=O)OCC)=C(CC)N1 (stereo not drawn) | 125 °C

Row | Compound | melting point
26 | Cc1oc2c(Br)cccc2c1C | 33 °C
27 | C[C@@H](N(CC(=O)O)C(=O)c1ccc(C(F)(F)F)cc1)[C@](O)(Cn1cncn1)c1ccc(Cl)cc1Cl (relative stereo) | 140 to 142 °C
28 | C=CCN1CC(=O)N(c2c(C)cccc2C)C1=S | 43 to 46 °C
29 | CCOCCC(=O)C1CCC2C3CCC4CC(O)CCC4(C)C3C(=O)CC12C (stereo not drawn) | 126 to 130 °C
30 | Brc1ccc2c(c1-c1c(Br)ccc3c1CCCC3)CCCC2 | 146 to 147 °C
31 | CNc1ccc(Sc2nnnn2C)c2cc(-c3nccs3)[nH]c12 | 211 °C
32 | Nc1cc(Oc2ccc(S(=O)(=O)c3ccc(OCc4ccccc4)c(Cl)c3)cc2Cl)c([N+](=O)[O-])cc1O | 181 to 184 °C
33 | CCOC(=O)c1cc2c(nc(C)n2C)c2c1CCC(OC)(c1ccccc1C)O2 (stereo not drawn) | 198 °C
34 | Cc1onc(NS(=O)(=O)c2cccc([N+](=O)[O-])c2)c1Br | 137 to 139 °C
35 | O=C1N(Cc2ccc(Cl)cc2)c2ccccc2C1(O)c1ccoc1 (stereo not drawn) | 128 to 130 °C
36 | O=C(NCCc1cccc2ccccc12)C1CC1 | 117 to 118 °C
37 | Cc1cc(C)n(-c2nnc(-c3ccc(Cl)cc3)c(C)n2)n1 | 151 to 152 °C
38 | COC(=O)C1=CSCC1OC (stereo not drawn) | 79 to 81 °C
39 | COC(=O)C=Cc1ccc(-c2ccccc2C(F)(F)F)c(C(F)(F)F)c1 | 97 to 98 °C
40 | C#Cc1ccc(Nc2c(C(=O)NOCCO)ccc(F)c2F)c(Cl)c1 | 155 to 157 °C
41 | CCOC(=O)C(C)(C)Oc1ccc(OCCn2c(=O)sc3cc(C(=NO)c4ccccc4)ccc32)cc1 | 60 to 62 °C
42 | CCCn1nc(-c2c(-c3ccc(F)cc3)nn3ccc(OC)cc23)ccc1=O | 190 to 191 °C
43 | CC(=O)NC(Cc1ccccc1)C(=O)Nc1c(C(C)C)cccc1C(C)C (stereo not drawn) | 228 to 229 °C
44 | CC(C)n1cc(C(=O)C(F)(F)F)c2ccc(C(F)(F)F)cc21 | 92 to 93 °C
45 | CN=C1SCC(O)(c2ccc(Cl)c(S(=O)(=O)NCc3cccnc3)c2)N1C (stereo not drawn) | 152 to 153 °C
46 | OCc1ccc(-c2ccc3nnn(Cc4ccc(F)cc4)c3n2)cc1 | 210 to 213 °C
47 | N#CC1(C2(O)CCCCC2)Cc2cc3occc3cc21 (stereo not drawn) | 154 to 158 °C
48 | CC1(C(=O)CC(=O)c2ccc(S(C)(=O)=O)c(Cl)c2Cl)CC1 | 143 °C
49 | COC(=O)c1ccc2c(c1)C(=O)NC(C(Cl)(Cl)Cl)O2 (stereo not drawn) | 218 to 220 °C
50 | CC(C)c1c[nH]c(=O)[nH]c1=O | 284 to 286 °C

Row | Compound | melting point
51 | O=c1c2c(nc3ccc(Cl)cn13)C(=Cc1ccccc1Cl)CC2 | 249 to 250 °C
52 | COCCOc1ccc(/C=C/C(=O)O)c(OC2CCCCC2)c1 | 102 to 114 °C
53 | O=Cc1ccc(-c2ccc(-c3cn([C@H]4CN5CCC4CC5)nn3)cc2)s1 | 228 °C
54 | NC(Cc1ccc(O)cc1)CN1CCN(c2ccccc2)CC1 (stereo not drawn) | > 270 °C
55 | CCCCc1nc2cccc(C(=O)O)c2n1Cc1ccc(-c2ccccc2-c2nnnn2C(c2ccccc2)(c2ccccc2)c2ccccc2)cc1 | 120 to 123 °C
56 | CN(C)S(=O)(=O)c1cccc(NC(=O)c2cnn3c(C(F)F)cc(-c4ccc(C(F)(F)F)cc4)nc23)c1 | 197 °C
57 | Clc1ccc(CN2CC=C(/C=C/c3ccc4[nH]ccc4c3)CC2)cc1 | 165 °C
58 | Cc1cccc(C(=O)Nc2ccc(N3CCN(Cc4cccc(C#N)c4)CC3)cc2)c1-c1ccc(C(F)(F)F)cc1 | 192 °C
59 | CCOC(=O)C1(CCCC(=O)OC(C)(C)C)CCn2c(cc3ccccc32)C1=O (stereo not drawn) | 104 °C
60 | Cc1ccnc(-c2ccc([N+](=O)[O-])cc2)c1 | 145 to 147 °C
61 | NC(=O)c1cccc(NS(=O)(=O)c2cc(S(=O)(=O)Nc3cccc(C(N)=O)c3)c3cc(O)ccc3c2)c1 | 169 to 171 °C
62 | CCCCc1ccc(C(=O)NCCCCn2c(CCOC)nc3c(N)nc4ccccc4c32)nc1 | 54.9 to 55.2 °C
63 | Cc1nccnc1C(=O)Nc1ccccc1-c1ccc(OC(F)(F)F)cc1 | 120 to 121 °C
64 | O=C1NNC(c2ccc3c(c2)CC2(CCN(C4CCC4)CC2)O3)C2C=C12 (stereo not drawn) | 189 to 191 °C
65 | CC(C)(C)OC(=O)COC1=CC(=NS(=O)(=O)c2cccs2)c2ccccc2C1=O | 153 to 155 °C
66 | CCC(=O)C(=Cc1ccccc1)c1cc(C)cs1 | 98 to 99 °C
67 | CCCCCCCCC(=S)n1c(-c2cscn2)nc2ccccc21 | 58 to 59 °C
68 | N#Cc1cccc(-c2nc(Nc3cnccn3)sc2-n2cncn2)c1 | > 250 °C
69 | N#CC1=C(NN)C(=O)NC1=O | > 350 °C
70 | Cc1ccc(S(=O)(=O)NC(=O)/C=C/c2c(C)nn(C)c2-n2ccc3cccnc32)cc1 | 237 to 238 °C
71 | CCCCCCCCOc1ccc2cc(C(=O)O)ccc2c1 | 150 to 153 °C
72 | CCCOc1cccc(CCOc2ccc3c(c2)C=C(C(=O)Nc2ccc(CN(C)C4CCOCC4)cc2)CCS3(=O)=O)c1 | 153 to 154 °C
73 | COC1OC(COCc2ccccc2)C(OCc2ccccc2)C(OCc2ccccc2)C1OCc1ccccc1 (stereo not drawn) | 68 to 69 °C
74 | CCCc1[nH]c2cc(C(N)=O)ccc2c1C(=O)C=C(C)C | 179 to 181 °C
75 | Cc1cc(C)c(O)c(C(CCCC(c2cc(C)cc(C)c2O)c2cc(C)cc(C)c2O)c2cc(C)cc(C)c2O)c1 | 236 to 242 °C

Row | Compound | melting point
76 | CCC(C)C(NC(=O)N1CCCCCC1)C(=O)NC(Cc1ccc(OCc2ccccc2)cc1)C(=O)OC(C)(C)C (stereo not drawn) | 53 to 57 °C
77 | COc1ccc(CBr)c(CBr)c1 | 48 to 50 °C
78 | CCCCCCC#CCC#CCC#CCC#CCCCC(=O)NO | 85 to 88 °C
79 | CCC(=O)N1C(=O)OC(C)(C)[C@@H]1Cc1ccccc1 | 61 °C
80 | Cc1c(O)ccnc1CSc1nc2ccc(F)cc2[nH]1 | 232 to 233 °C
81 | O=C(O)c1csc(Nc2ccc(C(F)(F)F)cc2)n1 | 255 to 259 °C
82 | Oc1ccc(-c2nc(Cn3ccnn3)cs2)cc1 | 164 to 166 °C
83 | Cc1csc2c1S(=O)(=O)N(C)C(C(=O)Nc1cccccc1=O)=C2O | 229 to 233 °C
84 | COC(=O)N1Cc2cc(OC)ccc2C(Cc2c(Cl)cncc2Cl)=N1 | 184 to 186 °C
85 | CC(C)Nc1nc2c(F)c(F)c(F)cc2[nH]1 | 182 to 184 °C
86 | N#Cc1nn(-c2c(Cl)cc(C(F)(F)F)cc2Cl)c(Cl)c1SC(F)(F)F | 131 to 132 °C
87 | Cn1ncc(N2CCN(CC=Cc3ccccc3)CC2)c(Cl)c1=O | 98 to 100 °C
88 | Cc1ccc(S(=O)(=O)N2CCC[C@H](CC(=O)NC(C)C)c3ccccc32)cc1 | 131 to 133 °C
89 | Cc1cccc(C(=O)Nc2ccc(C(=O)N3Cc4cccn4Cc4ccccc43)cc2)c1C | 168 to 170 °C
90 | O=C(N[C@@H](Cc1ccccc1)C(=O)On1nnc2ccccc21)OCc1ccccc1 | 120 to 125 °C
91 | CC(Oc1ccc(Cl)cc1Cl)c1ccnc2ncnn12 (stereo not drawn) | 137 to 138 °C
92 | COC(=O)c1c(C(=O)OC)c(-c2ccc(OC)c(OC)c2)c2sccc2c1OC | 118 °C
93 | COc1ccccc1-c1cc(C(C)(C)C)c(O)c(C(C)(C)C)c1 | 98.5 to 100 °C
94 | CC(C)(C)c1nc2c(Cl)cc(F)c(-n3c(=O)cc(C(F)(F)F)n(N)c3=O)c2o1 | 90 to 92 °C
95 | CCCCOC(=O)c1ccccc1SN(C(=O)NC(=O)c1c(F)cccc1F)c1ccc(C(F)(F)F)cc1 | 79 to 81 °C
96 | COc1nc(C(=O)O)c(C(=O)NC(C)(C)C)s1 | 105 to 110 °C
97 | O=C(CNC(=O)c1ccc(Cl)cc1)c1ccsc1 | 160 to 161 °C
98 | Cc1nc2nccc(C(C)Oc3ccc(Cl)cc3)n2n1 (stereo not drawn) | 138 °C
